Here are results for one compound from ChEMBL document CHEMBL3868641, “Discovery, characterization and biological evaluation of a novel (R)-4,4-difluoropiperidine scaffold as dopamine receptor 4 (D4R) antagonists” (Bioorg Med Chem Lett, 2016).

The nature of data set [1]: Plasma concentration in rat at 0.25 mg/kg, iv administered through cassette dosing after 0.25 hrs by LC/MS/MS analysis. In kind it is ADME, organism-based.
Data set [2] has as its target D(2) dopamine receptor (Homo sapiens) (UniProt P14416). The data set is described as follows: Displacement of [3H]Spiperone from recombinant human Dopamine D2S receptor expressed in CHO cell membranes at 10 uM after 120 mins relative to control. (Displacement assays read how much labelled ligand stays bound in the presence of the test substance.)
The target is the same in data set [3]. The data set is described as follows: Displacement of [3H]Spiperone from recombinant human Dopamine D2L receptor expressed in CHO cell membranes at 10 uM after 120 mins relative to control.
Data set [4] can be described thus: Intrinsic clearance in human liver microsomes by HPLC/MS analysis. In kind it is ADME. Particulars: read-out: CLH. Background: Liver microsomes are vesicles of endoplasmic reticulum, rich in cytochrome P450 enzymes.
The nature of data set [5]: Unbound fraction in human plasma by HPLC/MS based equilibrium dialysis method. The class given is ADME, cell-free. In general terms: In equilibrium dialysis only unbound substance equilibrates across the membrane.
Data set [6] in a line: Displacement of [3H]Spiperone from recombinant human Dopamine D4.4 receptor expressed in CHO-K1 cell membranes after 120 mins.
For data set [7], the target named is D(1A) dopamine receptor (Homo sapiens) (UniProt P21728). Briefly: Displacement of [3H]SCH-23390 from recombinant human Dopamine D1 receptor expressed in CHO cell membranes at 10 uM after 120 mins relative to control.
Data set [8] in a line: Intrinsic clearance in rat liver microsomes by HPLC/MS analysis. In kind it is ADME. Particulars: read-out: CLH.
The target of data set [9] is D(3) dopamine receptor (Homo sapiens) (UniProt P35462). The data set is described as follows: Displacement of [3H]Spiperone from recombinant human Dopamine D3 receptor expressed in CHO cell membranes at 10 uM after 120 mins relative to control.
The nature of data set [10]: Ratio of drug level in brain to plasma in rat at 0.25 mg/kg, iv administered through cassette dosing after 0.25 hrs by LC/MS/MS analysis. In kind it is ADME, organism-based.
A further data set has as its system CHO-K1. The data set is described as follows: Displacement of [3H] Spiperone from recombinant human Dopamine D4.4 receptor expressed in CHO-K1 cell membranes at 10 nM after 120 mins relative to control.
The nature of data set [11]: Drug uptake in rat brain at 0.25 mg/kg, iv administered through cassette dosing after 0.25 hrs by LC/MS/MS analysis. The class given is ADME, organism-based. The conditions noted are these: brain, read-out: Drug uptake.
Data set [12] concerns the target D(1B) dopamine receptor (Homo sapiens) (UniProt P21918). The data set is described as follows: Displacement of [3H]SCH-23390 from recombinant human Dopamine D5 receptor expressed in CHO cell membranes at 10 uM after 120 mins relative to control.
Data set [13] is described as follows: Unbound fraction in rat plasma by HPLC/MS based equilibrium dialysis method. In kind it is ADME, cell-free.

Chain of D(2) dopamine receptor (Homo sapiens) (P14416 whole entry): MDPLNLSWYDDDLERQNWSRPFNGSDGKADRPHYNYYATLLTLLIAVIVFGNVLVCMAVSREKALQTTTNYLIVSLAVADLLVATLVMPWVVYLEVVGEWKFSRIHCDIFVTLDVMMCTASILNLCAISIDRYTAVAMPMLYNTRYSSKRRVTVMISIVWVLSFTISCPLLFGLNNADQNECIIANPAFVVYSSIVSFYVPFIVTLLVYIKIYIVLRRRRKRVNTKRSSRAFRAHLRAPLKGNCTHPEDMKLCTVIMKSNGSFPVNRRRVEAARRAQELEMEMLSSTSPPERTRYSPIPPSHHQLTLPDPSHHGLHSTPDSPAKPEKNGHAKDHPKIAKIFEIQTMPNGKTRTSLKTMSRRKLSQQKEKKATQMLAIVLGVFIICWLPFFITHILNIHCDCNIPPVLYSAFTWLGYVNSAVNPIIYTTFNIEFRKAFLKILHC
Chain of D(1B) dopamine receptor (Homo sapiens) (P21918 whole entry): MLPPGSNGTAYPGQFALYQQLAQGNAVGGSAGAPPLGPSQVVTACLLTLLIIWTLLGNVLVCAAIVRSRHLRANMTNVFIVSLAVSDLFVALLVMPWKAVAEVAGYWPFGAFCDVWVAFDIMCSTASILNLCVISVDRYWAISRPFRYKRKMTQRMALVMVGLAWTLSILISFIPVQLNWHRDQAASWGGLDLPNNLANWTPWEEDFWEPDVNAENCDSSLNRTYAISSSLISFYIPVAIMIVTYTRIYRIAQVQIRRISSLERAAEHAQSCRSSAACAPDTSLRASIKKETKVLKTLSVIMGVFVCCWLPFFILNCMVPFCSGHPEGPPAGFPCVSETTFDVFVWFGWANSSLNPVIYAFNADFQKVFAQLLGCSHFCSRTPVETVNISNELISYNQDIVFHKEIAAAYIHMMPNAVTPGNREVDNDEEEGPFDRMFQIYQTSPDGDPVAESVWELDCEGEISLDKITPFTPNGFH
Chain of D(3) dopamine receptor (Homo sapiens) (P35462 whole entry): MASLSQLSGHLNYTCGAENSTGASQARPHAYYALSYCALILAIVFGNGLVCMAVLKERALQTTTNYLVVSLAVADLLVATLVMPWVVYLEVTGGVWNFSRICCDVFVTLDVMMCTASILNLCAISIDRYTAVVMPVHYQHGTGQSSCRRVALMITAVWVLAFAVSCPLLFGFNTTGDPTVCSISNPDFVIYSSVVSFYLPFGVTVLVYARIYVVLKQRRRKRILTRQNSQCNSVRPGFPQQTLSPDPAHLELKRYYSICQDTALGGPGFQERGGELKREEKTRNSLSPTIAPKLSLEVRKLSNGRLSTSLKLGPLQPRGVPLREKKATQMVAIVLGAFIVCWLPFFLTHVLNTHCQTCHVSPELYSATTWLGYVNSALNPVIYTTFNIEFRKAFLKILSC
Chain of D(1A) dopamine receptor (Homo sapiens) (P21728 whole entry): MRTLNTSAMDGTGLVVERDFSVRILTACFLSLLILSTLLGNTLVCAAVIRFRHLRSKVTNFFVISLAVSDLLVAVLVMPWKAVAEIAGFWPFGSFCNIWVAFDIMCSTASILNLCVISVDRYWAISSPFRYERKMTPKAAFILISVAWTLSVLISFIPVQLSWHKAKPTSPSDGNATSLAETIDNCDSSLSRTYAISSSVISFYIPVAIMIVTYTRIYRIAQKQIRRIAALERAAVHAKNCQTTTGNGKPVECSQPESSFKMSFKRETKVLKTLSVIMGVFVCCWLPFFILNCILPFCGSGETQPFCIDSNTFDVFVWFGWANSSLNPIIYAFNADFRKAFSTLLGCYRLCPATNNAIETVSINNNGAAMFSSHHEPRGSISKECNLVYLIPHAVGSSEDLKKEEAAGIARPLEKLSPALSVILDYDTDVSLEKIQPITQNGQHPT

Usually inhibition stands for how much of the control response was suppressed. By fraction unbound is commonly meant the share of the substance not bound to proteins or other matrix. A low value points to little free substance. As a reminder, the IC50 is the concentration at which inhibition is half-maximal. Broadly, the Ki is a measure of affinity in units of concentration, obtained from inhibition or displacement. Broadly, the Kp is tissue or fluid exposure divided by exposure in the circulation. For the compound `COc1ccc2c(CN3CCC(F)(F)[C@H](CCc4ccc(F)cc4)C3)c[nH]c2c1`, the values for the concentration at 0.25 h in data set [1] and in data set [11] were 9.2 ng/mL and 30.3 ng/g, respectively. Moreover, the inhibition in data set [2] was under 30%; in data set [3], 67%; in data set [7], under 30%; in [9], 52%; in the data set on CHO-K1, 63%; in data set [12], under 30%. In addition, the CLint scaled was determined as 298 mL/min/kg in data set [4] and 957 mL/min/kg in [8]. Also, the free fraction (fraction unbound) in data set [5] worked out at 0.018; in data set [13] it was 0.009. Besides, in [6], the IC50 was found to be 7 nM. Also, the inhibition constant Ki in [6] stood at 1.9 nM. In addition, in [10], the Kp at 0.25 h came to 3.3.
